# Data published in ChEMBL document CHEMBL1201862, “PubChem BioAssay data set” (2004).
# Activity calls are given as the source filed them.
# Columns and labels:
# [1] = target: G-protein coupled receptor 35 (Homo sapiens, UniProt Q9HC97); assay: inhibition of zaprinast-stimulated GPR35 beta-arrestin translocation – imaging, U2OS, beta-arrestin-GFP, zaprinast agonist, primary screen (AID 2058); assay type: functional;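 also: antagonist potency meaning inhibition of agonist-induced arrestin redistribution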
# Trypsin = Trypsin (Sus scrofa, UniProt P00761); assay: trypsin protease activity blockade – biochemical, quenched peptide fluorescence, cherry-pick, selectivity assay for Rce1 protease inhibitor project, dose response (AID 488789)
# [2] = target: Cyclin-dependent kinase 5/CDK5 activator 1 (Homo sapiens, UniProt Q00535); assay: blockade of human CDK5 activity – biochemical, cherry-picked samples, set 2, dose response (AID 504545)
# Staphylococcus aureus = assay: Inhibitors of Bacterial Quorum Sensing Structure Activity Relationship (SAR) Analysis: Dose Response Assay. [Related pubchem assays: 700, 527 ]; assay type: functional, organism-based
# [3] = loss of viability in HepG2 cells – cell-based, CellTiter-Glo, cherry-picked, cytotoxicity control for Shn3 inhibitor project, dose response (AID 624134); assay type: functional
# [4] = reduction of Shn3 3'UTR-driven luciferase in osteoblasts – cell-based, Clone20 osteoblasts, firefly luciferase, cherry-picked, dose response (AID 624132); assay type: functional;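 also: firefly luciferase luminescence from reporter carrying the Shn3 3'UTR in osteoblasts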
# Vero [5] = assay: cells; assay type: functional; settings: Chlorocebus sabaeus
# [6] = NIH-3T3 fibroblast cytotoxicity, dose response, cytotoxicity control, cell-based, fluorescence, Alamar Blue, secondary assay (AID 2327); assay type: functional;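 also: NIH-3T3 mouse fibroblasts cultured with fluconazole at 8 µg/mL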
# BJ [7] = assay: cells; assay type: functional, cell-based; settings: Homo sapiens
# BJ [8] = assay: BJ-TERT fibroblast viability loss – cell-based, RAS-independent, luminescence, dose response (AID 1933); assay type: functional; settings: Homo sapiens
# Jurkat = assay: blockers of NF-kB activation in T cells – Jurkat, luciferase reporter, luminescence, B- and T-cell, dose response (AID 489004); assay type: functional, cell-based; settings: Homo sapiens;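 also: NF-kB luciferase reporter Jurkat cells stimulated with PMA plus ionomycin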
# [9] = non-specific 3'UTR reporter inhibition in Clone20-Shn3RL – cell-based, Renilla luciferase, cherry-picked, counter-screen for Shn3 inhibitor project, dose response (AID 624133); assay type: functional
# Vero [10] = assay: mammalian cell viability reduction – secondary assay, cytotoxicity control for West Nile virus antiviral project, dose response (AID 1650); assay type: functional; settings: Chlorocebus sabaeus
# BJ [11] = assay: BJ-TERT-LT-ST fibroblast viability loss – cell-based, RAS-independent, luminescence, dose response (AID 1935); assay type: functional; settings: Homo sapiens;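 also: BJ fibroblasts immortalized with TERT plus LT and ST oncogenes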
# [12] = DRD fibroblast viability loss – cell-based, non-viral oncogenic, luminescence, dose response (AID 1934); assay type: functional; settings: Homo sapiens
# [13] = target: NACHT, LRR and PYD domains-containing protein 3 (Homo sapiens, UniProt Q96P20); assay: NALP3 inhibitors in yeast, dose response, luminescent (AID 488799); assay type: functional
# [14] = target: T1, Serine/threonine-protein phosphatase (Candida dubliniensis (strain CD36 / CBS 7987 / NCPF 3949 / NRRLY-17841) (Yeast), UniProt B9W6M3); assay: blockers of CaCl2-induced CDRE-lacZ signaling – S. cerevisiae, luminescence, secondary, dose response (AID 2388); assay type: functional, cell-based;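 also: yeast reporter cells carrying a calcineurin-responsive lacZ construct stimulated with calcium chloride; luminescent beta-galactosidase reporter signal in whole cells rather than isolated phosphatase activity; potency for inhibition where a drop in reporter signal means calcineurin blockade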
# T1 sequence (B9W6M3 whole entry): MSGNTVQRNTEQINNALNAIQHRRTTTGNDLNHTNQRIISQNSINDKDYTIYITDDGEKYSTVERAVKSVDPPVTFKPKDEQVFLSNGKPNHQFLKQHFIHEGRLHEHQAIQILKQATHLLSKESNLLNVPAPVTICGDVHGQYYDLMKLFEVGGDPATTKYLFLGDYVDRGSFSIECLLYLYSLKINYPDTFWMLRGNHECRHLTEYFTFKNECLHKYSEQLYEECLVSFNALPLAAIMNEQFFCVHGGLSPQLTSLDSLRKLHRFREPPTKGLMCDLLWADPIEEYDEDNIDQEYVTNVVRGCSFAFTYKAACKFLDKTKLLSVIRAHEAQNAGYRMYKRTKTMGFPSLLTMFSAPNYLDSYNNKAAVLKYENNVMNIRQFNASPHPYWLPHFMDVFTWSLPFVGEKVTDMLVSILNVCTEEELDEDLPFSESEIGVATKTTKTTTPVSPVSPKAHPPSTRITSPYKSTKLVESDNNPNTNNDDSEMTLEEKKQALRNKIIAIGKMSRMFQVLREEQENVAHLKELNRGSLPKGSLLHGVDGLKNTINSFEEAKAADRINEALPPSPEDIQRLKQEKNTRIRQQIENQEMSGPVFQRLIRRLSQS
# H4 = assay: Luminescence Cell-Based Dose Response HTS to Identify Activators of 5'UTR Stem-Loop Driven Prion Protein mRNA Translation in H4 Neuroglioblastoma Cells. [Related pubchem assays: 1829 (Project Summary), 1814 (Primary HTS)]; assay type: functional; settings: Homo sapiens
# [15] = fluconazole-exposed Candida albicans growth modulators – fluorescence, retest, confirmation (AID 2467); assay type: functional, cell-based
# [16] = HEK-293T viability loss, compound-treated – cell-based, uHTS hits, cytotoxicity control for B/T-cell NF-kB inhibitor project, dose response (AID 489019); assay type: functional;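 also: IC50 reflects cytotoxicity as loss of cell viability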
# Chaperone protein dnaK = Chaperone protein dnaK (Escherichia coli, UniProt C3TRK2); assay: E. coli DnaK binders, calorimetric Kd – biophysical, isothermal titration calorimetry, beta-domain, full-length DnaK, orthogonal assay for DnaK modulator project, SAR follow-up (AID 1495)
# Vero [17] = assay: host cell viability loss, Vero E6 – synthesized analogs, cytotoxicity control for West Nile virus antiviral project, SAR follow-up (AID 2244); assay type: functional; settings: Chlorocebus sabaeus
# [18] = target: T2, Neuropeptides B/W receptor type 1 (Homo sapiens, UniProt P48145); assay: human NPBW1 receptor blockade, IC50 – cell-based, fluorescence, dose response, late-stage follow-up (AID 463251); assay type: functional
# T2 sequence (P48145 whole entry): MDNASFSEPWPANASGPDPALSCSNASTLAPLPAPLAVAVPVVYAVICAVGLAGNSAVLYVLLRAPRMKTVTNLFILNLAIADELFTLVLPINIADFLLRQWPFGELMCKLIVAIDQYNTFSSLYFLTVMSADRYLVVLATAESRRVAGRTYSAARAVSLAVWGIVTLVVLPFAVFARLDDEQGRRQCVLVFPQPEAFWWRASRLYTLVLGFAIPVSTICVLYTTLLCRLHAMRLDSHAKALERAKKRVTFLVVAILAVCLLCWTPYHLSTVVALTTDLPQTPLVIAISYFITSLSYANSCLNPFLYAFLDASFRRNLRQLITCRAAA
# [19] = target: Melanin-concentrating hormone receptor 1 (Homo sapiens, UniProt Q99705); assay: Late-stage fluorescence-based counterscreen for antagonists of the G-protein coupled receptor 7 (GPR7): cell-based dose response assay to identify antagonists of the melanin-concentrating hormone receptor 1 (MCHR1). [Related pubchem assays (depositor defined):AID1861, AID1880, AID1952, AID2148, AID2251, AID2257, AID485339]; assay type: functional;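 also: stimulated with 30 nM MCH peptide agonist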
# [20] = target: Acyl-homoserine lactone acylase PvdQ (Pseudomonas aeruginosa (strain LESB58), UniProt Q9I194); assay: PvdQ acylase enzyme activity blockers – biochemical, fluorescence, plate reader and imaging, cherry-picks, dose response (AID 493231)
# [21] = target: T3, Polyadenylate-binding protein 1 (Homo sapiens, UniProt P11940); assay: blockers of PABP interaction with poly(A) – biochemical, fluorescence polarization, […] (AID 2014)
# [22] = target: T4, Eukaryotic translation initiation factor 4H (Homo sapiens, UniProt Q15056); assay: eIF4H binding inhibition – biochemical, uHTS, fluorescence polarization, translation initiation inhibitor project, primary screen (AID 2012)
# [23] = target: T3, Polyadenylate-binding protein 1; assay: PABP inhibition in translation initiation, SAR follow-up (AID 435018); assay type: functional
# [24] = target: T4, Eukaryotic translation initiation factor 4H; assay: inhibitors of translation initiation factor eIF4H – SAR follow-up (AID 435011); assay type: functional
# Procathepsin L = Procathepsin L (Homo sapiens, UniProt P07711)
# Aspartyl aminopeptidase = target: T5, Aspartyl aminopeptidase (Plasmodium falciparum 3D7, UniProt Q8I2J3)
# T5 sequence (Q8I2J3 whole entry): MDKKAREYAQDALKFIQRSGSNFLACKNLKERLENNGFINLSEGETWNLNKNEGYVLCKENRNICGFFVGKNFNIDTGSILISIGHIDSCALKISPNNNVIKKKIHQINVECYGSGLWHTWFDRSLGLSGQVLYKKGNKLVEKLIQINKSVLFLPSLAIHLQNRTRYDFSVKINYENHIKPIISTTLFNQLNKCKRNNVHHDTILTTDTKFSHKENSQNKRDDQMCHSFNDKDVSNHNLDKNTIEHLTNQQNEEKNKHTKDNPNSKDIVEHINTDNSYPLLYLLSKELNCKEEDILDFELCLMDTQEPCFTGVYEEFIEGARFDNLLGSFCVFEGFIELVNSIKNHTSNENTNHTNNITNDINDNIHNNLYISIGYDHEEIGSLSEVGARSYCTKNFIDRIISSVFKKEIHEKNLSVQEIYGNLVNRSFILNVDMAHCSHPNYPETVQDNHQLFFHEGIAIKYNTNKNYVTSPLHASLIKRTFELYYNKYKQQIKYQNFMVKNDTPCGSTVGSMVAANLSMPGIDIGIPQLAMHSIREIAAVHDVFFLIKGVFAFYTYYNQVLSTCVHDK
# [25] = non-PhoP GFP expression and growth suppression – purified and synthesized compounds, set 2, counter-screen for PhoP regulon inhibitor project, dose response (AID 2834); assay type: functional
# T3 sequence (P11940 whole entry): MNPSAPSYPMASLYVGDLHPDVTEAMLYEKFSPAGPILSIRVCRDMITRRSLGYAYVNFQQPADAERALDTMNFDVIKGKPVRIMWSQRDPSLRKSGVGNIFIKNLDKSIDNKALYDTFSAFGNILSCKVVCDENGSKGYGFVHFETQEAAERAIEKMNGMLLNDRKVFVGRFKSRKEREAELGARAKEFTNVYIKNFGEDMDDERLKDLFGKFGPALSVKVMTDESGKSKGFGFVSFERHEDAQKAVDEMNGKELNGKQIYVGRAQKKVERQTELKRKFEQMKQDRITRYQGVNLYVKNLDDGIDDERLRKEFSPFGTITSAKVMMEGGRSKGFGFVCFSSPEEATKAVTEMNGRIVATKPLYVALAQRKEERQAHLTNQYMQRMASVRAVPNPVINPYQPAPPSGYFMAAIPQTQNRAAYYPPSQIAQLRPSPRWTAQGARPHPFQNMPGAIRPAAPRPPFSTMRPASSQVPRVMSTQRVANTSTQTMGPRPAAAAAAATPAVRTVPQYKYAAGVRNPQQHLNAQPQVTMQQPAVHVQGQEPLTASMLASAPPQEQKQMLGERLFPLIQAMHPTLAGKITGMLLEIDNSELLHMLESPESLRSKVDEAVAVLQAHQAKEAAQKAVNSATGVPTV
# Sequence of Cyclin-dependent kinase 5/CDK5 activator 1 (Q00535 whole entry): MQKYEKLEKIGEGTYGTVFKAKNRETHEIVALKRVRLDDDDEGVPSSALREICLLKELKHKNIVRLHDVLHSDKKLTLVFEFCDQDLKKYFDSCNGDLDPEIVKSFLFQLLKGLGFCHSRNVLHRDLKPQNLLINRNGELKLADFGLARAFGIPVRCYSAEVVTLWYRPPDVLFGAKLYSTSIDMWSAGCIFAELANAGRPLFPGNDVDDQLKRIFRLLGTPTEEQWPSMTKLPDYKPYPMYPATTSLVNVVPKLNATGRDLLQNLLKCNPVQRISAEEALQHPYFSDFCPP
# Sequence of Cyclin-dependent kinase 5/CDK5 activator 1 (Q15078 whole entry, further chain): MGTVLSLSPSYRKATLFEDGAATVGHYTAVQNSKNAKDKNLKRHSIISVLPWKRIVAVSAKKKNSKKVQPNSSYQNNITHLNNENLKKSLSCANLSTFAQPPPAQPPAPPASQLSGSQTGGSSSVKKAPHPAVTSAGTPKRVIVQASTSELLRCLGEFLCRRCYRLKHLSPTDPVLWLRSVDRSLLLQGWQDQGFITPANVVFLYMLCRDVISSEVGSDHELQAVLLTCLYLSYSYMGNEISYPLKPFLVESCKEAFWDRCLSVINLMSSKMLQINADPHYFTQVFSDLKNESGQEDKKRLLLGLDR
# Sequence of NACHT, LRR and PYD domains-containing protein 3 (Q96P20 whole entry, the tested form may be a part): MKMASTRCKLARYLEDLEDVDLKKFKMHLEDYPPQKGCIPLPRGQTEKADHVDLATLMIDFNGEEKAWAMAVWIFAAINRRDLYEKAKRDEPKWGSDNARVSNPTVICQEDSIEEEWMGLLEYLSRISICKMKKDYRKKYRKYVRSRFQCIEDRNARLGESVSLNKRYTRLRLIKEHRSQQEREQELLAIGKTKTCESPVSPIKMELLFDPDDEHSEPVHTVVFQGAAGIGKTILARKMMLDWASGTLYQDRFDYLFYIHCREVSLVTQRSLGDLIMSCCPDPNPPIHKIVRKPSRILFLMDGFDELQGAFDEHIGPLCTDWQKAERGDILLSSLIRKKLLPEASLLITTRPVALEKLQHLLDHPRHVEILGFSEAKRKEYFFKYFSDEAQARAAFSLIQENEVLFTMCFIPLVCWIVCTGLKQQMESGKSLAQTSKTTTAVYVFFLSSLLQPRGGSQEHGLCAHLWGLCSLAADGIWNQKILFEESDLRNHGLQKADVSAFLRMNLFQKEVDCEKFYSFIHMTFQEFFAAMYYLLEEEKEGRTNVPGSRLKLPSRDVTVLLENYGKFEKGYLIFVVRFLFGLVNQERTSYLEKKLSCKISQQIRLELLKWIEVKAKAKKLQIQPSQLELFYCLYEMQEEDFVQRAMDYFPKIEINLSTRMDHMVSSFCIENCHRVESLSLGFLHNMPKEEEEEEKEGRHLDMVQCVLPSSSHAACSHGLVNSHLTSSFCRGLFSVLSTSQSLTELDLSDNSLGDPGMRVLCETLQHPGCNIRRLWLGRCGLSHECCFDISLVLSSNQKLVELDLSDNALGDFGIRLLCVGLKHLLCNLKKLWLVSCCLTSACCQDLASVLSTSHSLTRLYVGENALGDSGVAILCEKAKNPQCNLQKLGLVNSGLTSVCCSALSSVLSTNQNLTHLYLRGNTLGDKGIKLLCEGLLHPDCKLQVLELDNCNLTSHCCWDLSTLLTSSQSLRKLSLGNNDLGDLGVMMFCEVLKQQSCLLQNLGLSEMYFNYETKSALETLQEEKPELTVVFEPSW
# Sequence of G-protein coupled receptor 35 (Q9HC97 whole entry): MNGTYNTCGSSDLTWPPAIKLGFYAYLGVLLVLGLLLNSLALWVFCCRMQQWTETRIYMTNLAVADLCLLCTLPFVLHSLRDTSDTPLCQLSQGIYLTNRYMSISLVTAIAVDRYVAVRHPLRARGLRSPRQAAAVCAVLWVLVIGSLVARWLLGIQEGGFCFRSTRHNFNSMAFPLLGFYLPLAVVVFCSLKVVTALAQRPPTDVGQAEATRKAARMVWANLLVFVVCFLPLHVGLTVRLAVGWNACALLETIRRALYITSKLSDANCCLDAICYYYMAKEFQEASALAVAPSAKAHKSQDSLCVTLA
# Sequence of Melanin-concentrating hormone receptor 1 (Q99705 whole entry): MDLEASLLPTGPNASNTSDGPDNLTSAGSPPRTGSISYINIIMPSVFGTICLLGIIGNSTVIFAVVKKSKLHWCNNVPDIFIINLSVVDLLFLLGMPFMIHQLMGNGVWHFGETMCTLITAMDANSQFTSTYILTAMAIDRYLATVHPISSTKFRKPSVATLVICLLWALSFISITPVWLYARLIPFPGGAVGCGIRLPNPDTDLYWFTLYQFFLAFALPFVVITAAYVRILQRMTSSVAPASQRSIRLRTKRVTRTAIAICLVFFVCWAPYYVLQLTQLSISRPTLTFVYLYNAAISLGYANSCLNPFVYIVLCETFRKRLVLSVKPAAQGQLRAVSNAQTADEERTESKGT
# Sequence of Trypsin (P00761 whole entry): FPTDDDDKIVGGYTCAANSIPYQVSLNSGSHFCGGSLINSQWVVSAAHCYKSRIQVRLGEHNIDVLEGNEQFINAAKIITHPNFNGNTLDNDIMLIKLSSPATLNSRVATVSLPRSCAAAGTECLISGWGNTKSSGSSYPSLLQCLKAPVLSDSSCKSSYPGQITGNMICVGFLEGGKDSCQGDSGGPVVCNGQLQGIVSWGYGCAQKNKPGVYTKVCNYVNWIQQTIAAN
# Sequence of Chaperone protein dnaK (C3TRK2 whole entry): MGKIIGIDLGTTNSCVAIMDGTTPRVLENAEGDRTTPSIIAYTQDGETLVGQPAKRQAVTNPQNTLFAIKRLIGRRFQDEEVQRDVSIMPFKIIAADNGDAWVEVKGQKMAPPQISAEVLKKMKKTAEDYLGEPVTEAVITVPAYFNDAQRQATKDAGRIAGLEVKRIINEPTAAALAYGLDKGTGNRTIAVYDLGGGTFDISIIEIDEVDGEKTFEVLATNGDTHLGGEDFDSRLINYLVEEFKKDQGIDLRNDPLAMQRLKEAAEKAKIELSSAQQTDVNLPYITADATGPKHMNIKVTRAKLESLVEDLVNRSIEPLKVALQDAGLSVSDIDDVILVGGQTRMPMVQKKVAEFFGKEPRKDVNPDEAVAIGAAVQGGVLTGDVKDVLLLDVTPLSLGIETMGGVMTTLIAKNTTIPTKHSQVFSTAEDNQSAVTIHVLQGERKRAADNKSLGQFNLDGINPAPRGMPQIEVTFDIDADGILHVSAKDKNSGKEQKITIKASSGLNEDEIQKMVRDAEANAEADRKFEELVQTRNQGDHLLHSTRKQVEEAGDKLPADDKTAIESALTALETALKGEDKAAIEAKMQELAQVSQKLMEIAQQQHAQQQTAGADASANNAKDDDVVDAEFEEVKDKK
# Sequence of Acyl-homoserine lactone acylase PvdQ (Q9I194 24-193 limits assumed): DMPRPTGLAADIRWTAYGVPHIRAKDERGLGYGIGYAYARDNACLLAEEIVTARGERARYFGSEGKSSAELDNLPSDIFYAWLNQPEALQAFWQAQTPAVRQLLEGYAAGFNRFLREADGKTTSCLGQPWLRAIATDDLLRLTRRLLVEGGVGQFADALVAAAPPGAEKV
# Sequence of Acyl-homoserine lactone acylase PvdQ (Q9I194 217-762 limits assumed): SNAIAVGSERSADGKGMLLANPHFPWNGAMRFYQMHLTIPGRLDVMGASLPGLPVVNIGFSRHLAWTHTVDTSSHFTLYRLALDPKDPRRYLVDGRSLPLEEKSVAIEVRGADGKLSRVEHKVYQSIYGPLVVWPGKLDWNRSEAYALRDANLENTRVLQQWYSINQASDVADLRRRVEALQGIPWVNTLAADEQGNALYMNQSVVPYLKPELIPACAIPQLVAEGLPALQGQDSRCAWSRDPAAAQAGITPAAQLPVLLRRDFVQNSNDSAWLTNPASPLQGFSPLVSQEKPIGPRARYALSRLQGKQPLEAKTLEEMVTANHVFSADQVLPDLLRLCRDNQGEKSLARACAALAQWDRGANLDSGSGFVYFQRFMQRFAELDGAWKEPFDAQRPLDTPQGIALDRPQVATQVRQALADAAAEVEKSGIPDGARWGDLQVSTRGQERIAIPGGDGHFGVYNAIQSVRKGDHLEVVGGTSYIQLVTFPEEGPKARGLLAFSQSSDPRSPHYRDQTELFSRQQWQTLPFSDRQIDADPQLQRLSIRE
smiles,measurement,setting,value
CN1CC=C2C(C#N)=C(N)C(C#N)(C#N)C(c3ccsc3)C2C1 (configuration not stated),IC50,[1],0.991 µM (active)
Cc1ccc(C(=O)N2N=C(c3ccccc3O)CC2c2ccccc2)cc1 (configuration not stated),AC50,Trypsin,67.6 µM (active)
CC(C)n1cnc2c(Nc3ccc(F)c(Cl)c3)nc(NCCO)nc21,AC50,[2],3.36 µM (active)
CC1CCCN(C(C(=O)Nc2ccc3c(c2)OCCO3)c2ccccc2)C1 (configuration not stated),IC50,Staphylococcus aureus,0.125 µM (active)
C[C@@H]1C[C@@H]2O[C@H]2/C=C\C=C\C(=O)Cc2c(Cl)c(O)cc(O)c2C(=O)O1,AC50,[3],49.8 µM (active)
same,AC50,[4],6.4 µM (active)
same,CC50,Vero [5],15.8 µM (active)
same,EC50,[6],44.5 µM (inconclusive)
same,EC50,BJ [7],0.309 µM (active)
same,EC50,BJ [8],21 µM (active)
same,IC50,Jurkat,0.21 µM (active)
same,AC50,[9],12.3 µM (active)
same,CC50,Vero [10],3.11 µM (active)
same,EC50,BJ [11],1.81 µM (active)
same,EC50,[12],2.08 µM (active)
same,IC50,[13],8.41 µM (active)
same,EC50,[14],> 180 µM (inactive)
same,EC50,H4,> 120 µM (not active)
same,EC50,[15],0.049 µM (active)
same,IC50,[16],> 80 µM (inactive)
O=C(NCc1ccccc1Br)c1cccs1,Kd,Chaperone protein dnaK,39.3 µM (inactive)
O=C(Nc1nc(-c2ccccc2)cs1)c1ccccc1Cl,CC50,Vero [17],14 µM (active)
COc1ccc(Oc2c(Cl)cnn(-c3ccc(I)cc3)c2=O)cc1,IC50,[18],1 µM (active)
same,IC50,[19],4.7 µM (active)
O=C1N[C@@H](Cc2ccccc2)[C@@H](c2ccco2)O1,AC50,[20],7.07 µM (active)
CCn1c(=O)n(CC)c2cc(NC(=O)C(C)c3ccccc3)c(Br)cc21 (configuration not stated),IC50,[21],21.5 µM (active)
same,IC50,[22],> 100 µM (inactive)
same,IC50,[23],9.4 µM (active)
same,IC50,[24],> 100 µM (inactive)
O=C(Nn1cnnc1)c1ccccc1-c1ccccc1,IC50,Procathepsin L,> 59.6 µM (not active)
same,IC50,Aspartyl aminopeptidase,2.89 µM (active)
O=C1C2=C(Nc3ccccc3SC2c2ccc(I)cc2)c2ccccc21 (configuration not stated),IC50,[25],232 µM (active)
